# From patent EP1863471B9, “USE OF ANGELIC ACID ESTERS AS AN ANTIPHLOGISTIC ACTIVE INGREDIENT AND ANTIPHLOGISTIC PREPARATIONS” (Miltitz Aromatics GmbH, priority 2005, dated 2006)
# Read-outs that look alike come from different tables or passages of the source.
# Legend:
# [1] = system: Carrageenin-induzierten Rattenpfotenödem; conditions: literature values from V. Jakovlev et al., Journal of Medicinal Plant Research 35 (1979), 125-140, corresponding test conditions, cited from earlier work
# [2] = system: Carrageenin-induzierten Rattenpfotenödem; assay: Carrageenin-induced rat paw oedema, oral administration of test substance; type: in vivo, Ratte; conditions: for ED50: oral administration, calculated from dose-dependent percent inhibition of oedema development, own tests
# Description: Die antiinflammatorische Wirkung von Isobutylangelat wurde am Carrageenin-induzierten ([…]) Rattenpfotenödem getestet. Isobutylangelat wurde oral verabreicht.
# Die Testbedingungen entsprachen den in der Literatur verwendeten, so dass Quervergleiche hergestellt werden konnten. (V. Jakovlev et al. in Journal of Medicinal Plant Research 35 (1979), 125-140).
# Als Vergleichssubstanz in den eigenen Tests diente (-)-alpha-Bisabolol. Dosisabhängig wurde die prozentuale Hemmung der Ödementwichlung bestimmt. Daraus ließ sich der ED50 Wert errechnen.
# Dosierungen von 100, 464, 1000 und 2150 mg Isobutylangelat/kg Körpergewicht wurden getestet. Die Ergebnisse wurden mit den für eine Kontrollgruppe (0,8 % Hydroxypropylmethylcellulose Gel) und zusätzlich den für die positive Kontrolle ((-)-alpha- Bisabolol) erhaltenen Werten verglichen.
Structure (SMILES),ED50 [1],other results
CC(C)=CCC[C@@](C)(O)[C@H]1CC=C(C)CC1 [(+) alpha Bisabolol],> 2000 mg/kg,–
CC(C)=CCC[C@](C)(O)[C@@H]1CC=C(C)CC1 [(-)-alpha-Bisabolol],–,ED50 [2]: 1540 mg/kg; ED50 ([1]; listed as (-) alpha Bisabolol): 1465 mg/kg
CC1=CCC(C2(C)CCC(O)C(C)(C)O2)CC1 (stereo not drawn) [Bisabololoxid A],3164 mg/kg,–
CC1=CCC(C2(C)CCC(C(C)(C)O)O2)CC1 (stereo not drawn) [Bisabololoxid B],> 2000 mg/kg,–
CC1=CC[C@@H]([C@]2(C)CCC(=O)C(C)(C)O2)CC1 [Bisabolonoxid],> 2000 mg/kg,–
CC(C)=CCC[C@](C)(O)[C@@H]1CC=C(C)CC1 [Dragosantol],> 3000 mg/kg,–
C/C=C(/C)C(=O)OCC(C)C [Isobutylangelat],–,"ED50 [2]: 2310 mg/kg; minimal effective dose ([2]; oral, doses tested 100, 464, 1000 and 2150 mg/kg body weight, read-out: dosisabhängige antiinflammatorische Wirkung, beginnend bei): ≥ 100 mg/kg"
